Assay results reported in PubChem BioAssay (NCI).
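The compound was tested at five concentrations on cells cultured in 96-well plates, with a 48-hour exposure period. GI50 marks 50% less growth. The concentration for full growth arrest is given as TGI.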

How the values were obtained:
Experiment in all cases: inhibition of tumour cell growth, NCI panel, 48 h
SK-MEL-5 melanoma = tested on: SK-MEL-5 melanoma
M14 melanoma = tested on: M14 melanoma
SN12C renal = tested on: SN12C renal
HCC-2998 colon = tested on: HCC-2998 colon
MALME-3M melanoma = tested on: MALME-3M melanoma
MCF7 breast = tested on: MCF7 breast
OVCAR-5 ovarian = tested on: OVCAR-5 ovarian
UO-31 renal = tested on: UO-31 renal
TK-10 renal = tested on: TK-10 renal
HOP-62 NSCLC = tested on: HOP-62 NSCLC
SNB-75 CNS = tested on: SNB-75 CNS
OVCAR-4 ovarian = tested on: OVCAR-4 ovarian
BT-549 breast = tested on: BT-549 breast
HOP-92 NSCLC = tested on: HOP-92 NSCLC
OVCAR-3 ovarian = tested on: OVCAR-3 ovarian
SF-539 CNS = tested on: SF-539 CNS
K-562 leukemia = tested on: K-562 leukemia
NCI/ADR-RES ovarian = tested on: NCI/ADR-RES ovarian
NCI-H460 lung = tested on: NCI-H460 lung
CAKI-1 renal = tested on: CAKI-1 renal
EKVX NSCLC = tested on: EKVX NSCLC
UACC-257 melanoma = tested on: UACC-257 melanoma
MOLT-4 leukemia = tested on: MOLT-4 leukemia
MDA-MB-435 = tested on: MDA-MB-435
A549 NSCLC = tested on: A549 NSCLC
NCI-H23 lung = tested on: NCI-H23 lung
SK-MEL-2 melanoma = tested on: SK-MEL-2 melanoma
SF-268 CNS = tested on: SF-268 CNS
SNB-19 CNS = tested on: SNB-19 CNS
NCI-H522 lung = tested on: NCI-H522 lung
SF-295 CNS = tested on: SF-295 CNS
A498 renal = tested on: A498 renal
ACHN renal = tested on: ACHN renal
SK-OV-3 ovarian = tested on: SK-OV-3 ovarian
MDA-MB-468 breast = tested on: MDA-MB-468 breast
RXF 393 renal = tested on: RXF 393 renal
HCT-116 colon = tested on: HCT-116 colon
COLO 205 colon = tested on: COLO 205 colon
DU-145 prostate = tested on: DU-145 prostate
NCI-H226 lung = tested on: NCI-H226 lung
KM12 colon = tested on: KM12 colon
OVCAR-8 ovarian = tested on: OVCAR-8 ovarian
U251 CNS = tested on: U251 CNS
CCRF-CEM leukemia = tested on: CCRF-CEM leukemia
UACC-62 melanoma = tested on: UACC-62 melanoma
SK-MEL-28 melanoma = tested on: SK-MEL-28 melanoma
SR leukemia = tested on: SR leukemia
PC-3 prostate = tested on: PC-3 prostate
HCT-15 colon = tested on: HCT-15 colon
786-0 renal = tested on: 786-0 renal
IGROV1 ovarian = tested on: IGROV1 ovarian
HT29 colon = tested on: HT29 colon
HL-60(TB) leukemia = tested on: HL-60(TB) leukemia
RPMI-8226 leukemia = tested on: RPMI-8226 leukemia
T-47D breast = tested on: T-47D breast

With C=C1CC[C@@H]2[C@]3(C)COC(c4cn[nH]c4-c4ccc(F)cc4)O[C@@H]3CC[C@@]2(C)[C@@H]1C/C=C1/C(=O)OCC1O (some centres undefined) the GI50 (SK-MEL-5 melanoma) was 15.5 µM, the TGI (SK-MEL-5 melanoma) was 28.9 µM and the GI50 (M14 melanoma) was 16.5 µM. For the same molecule, the TGI (M14 melanoma) was 34.1 µM, the GI50 (SN12C renal) was 15.4 µM and the TGI (SN12C renal) was 29.6 µM. It also gave a GI50 (HCC-2998 colon) of 16.3 µM, a TGI (HCC-2998 colon) of 29.8 µM and a GI50 (MALME-3M melanoma) of 16 µM. It also gave a TGI (MALME-3M melanoma) of 30 µM, a GI50 (MCF7 breast) of 7.52 µM and a TGI (MCF7 breast) of 22 µM. It also gave a GI50 (OVCAR-5 ovarian) of 18.2 µM, a TGI (OVCAR-5 ovarian) of 32.2 µM and a GI50 (UO-31 renal) of 13.7 µM. It also gave a TGI (UO-31 renal) of 26.6 µM, a GI50 (TK-10 renal) of 19 µM and a TGI (TK-10 renal) of 33 µM. The GI50 (HOP-62 NSCLC) was 18.1 µM, the TGI (HOP-62 NSCLC) was 34.4 µM and the GI50 (SNB-75 CNS) was 14.1 µM. The TGI (SNB-75 CNS) was 43.8 µM, the GI50 (OVCAR-4 ovarian) was 27.5 µM and the TGI (OVCAR-4 ovarian) was > 100 µM. It also gave a GI50 (BT-549 breast) of 13.4 µM, a TGI (BT-549 breast) of 27.5 µM and a GI50 (HOP-92 NSCLC) of 14.7 µM. The TGI (HOP-92 NSCLC) was 34.9 µM, the GI50 (OVCAR-3 ovarian) was 15.9 µM and the TGI (OVCAR-3 ovarian) was 32.9 µM. For the same molecule, the GI50 (SF-539 CNS) was 14.5 µM, the TGI (SF-539 CNS) was 27.6 µM and the GI50 (K-562 leukemia) was 13.1 µM. For the same molecule, the TGI (K-562 leukemia) was 49.6 µM, the GI50 (NCI/ADR-RES ovarian) was 17.7 µM and the TGI (NCI/ADR-RES ovarian) was 85.9 µM. It also gave a GI50 (NCI-H460 lung) of 19.7 µM, a TGI (NCI-H460 lung) of 42.7 µM and a GI50 (CAKI-1 renal) of 21.5 µM. The TGI (CAKI-1 renal) was 50 µM, the GI50 (EKVX NSCLC) was 13.5 µM and the TGI (EKVX NSCLC) was 26.3 µM. For the same molecule, the GI50 (UACC-257 melanoma) was 22.3 µM, the TGI (UACC-257 melanoma) was 69.2 µM and the GI50 (MOLT-4 leukemia) was 20.2 µM. It also gave a TGI (MOLT-4 leukemia) of 77.4 µM, a GI50 (MDA-MB-435) of 20.8 µM and a TGI (MDA-MB-435) of 52.9 µM. It also gave a GI50 (A549 NSCLC) of 21.4 µM, a TGI (A549 NSCLC) of 62.2 µM and a GI50 (NCI-H23 lung) of 15.6 µM. For the same molecule, the TGI (NCI-H23 lung) was 29.9 µM, the GI50 (SK-MEL-2 melanoma) was 16.5 µM and the TGI (SK-MEL-2 melanoma) was 31.6 µM. It also gave a GI50 (SF-268 CNS) of 20.7 µM, a TGI (SF-268 CNS) of 74.9 µM and a GI50 (SNB-19 CNS) of 16 µM. It also gave a TGI (SNB-19 CNS) of 29.5 µM, a GI50 (NCI-H522 lung) of 16.7 µM and a TGI (NCI-H522 lung) of 30.9 µM. The GI50 (SF-295 CNS) was 16.6 µM, the TGI (SF-295 CNS) was 30.7 µM and the GI50 (A498 renal) was 17 µM. It also gave a TGI (A498 renal) of 30.7 µM, a GI50 (ACHN renal) of 15.1 µM and a TGI (ACHN renal) of 28.4 µM. The GI50 (SK-OV-3 ovarian) was 21.8 µM, the TGI (SK-OV-3 ovarian) was 43.5 µM and the GI50 (MDA-MB-468 breast) was 11.9 µM. For the same molecule, the TGI (MDA-MB-468 breast) was 24.6 µM, the GI50 (RXF 393 renal) was 13.7 µM and the TGI (RXF 393 renal) was 27 µM. It also gave a GI50 (HCT-116 colon) of 14.9 µM, a TGI (HCT-116 colon) of 28.1 µM and a GI50 (COLO 205 colon) of 18.2 µM. It also gave a TGI (COLO 205 colon) of 35 µM, a GI50 (DU-145 prostate) of 19.6 µM and a TGI (DU-145 prostate) of 43.5 µM. The GI50 (NCI-H226 lung) was 13.1 µM, the TGI (NCI-H226 lung) was 27.6 µM and the GI50 (KM12 colon) was 22.5 µM. For the same molecule, the TGI (KM12 colon) was 57 µM, the GI50 (OVCAR-8 ovarian) was 23.3 µM and the TGI (OVCAR-8 ovarian) was > 100 µM. For the same molecule, the GI50 (U251 CNS) was 12.9 µM, the TGI (U251 CNS) was 30.5 µM and the GI50 (CCRF-CEM leukemia) was 4.6 µM. For the same molecule, the TGI (CCRF-CEM leukemia) was 38.5 µM, the GI50 (UACC-62 melanoma) was 14.3 µM and the TGI (UACC-62 melanoma) was 27.3 µM. The GI50 (SK-MEL-28 melanoma) was 16.8 µM, the TGI (SK-MEL-28 melanoma) was 30.4 µM and the GI50 (SR leukemia) was 16.7 µM. It also gave a TGI (SR leukemia) of 56.4 µM, a GI50 (PC-3 prostate) of 15.6 µM and a TGI (PC-3 prostate) of 43.9 µM. For the same molecule, the GI50 (HCT-15 colon) was 14.9 µM, the TGI (HCT-15 colon) was 30.5 µM and the GI50 (786-0 renal) was 16.6 µM. For the same molecule, the TGI (786-0 renal) was 30.2 µM, the GI50 (IGROV1 ovarian) was 16.4 µM and the TGI (IGROV1 ovarian) was 30.6 µM. The GI50 (HT29 colon) was 16.4 µM, the TGI (HT29 colon) was 30.2 µM and the GI50 (HL-60(TB) leukemia) was 12.8 µM. For the same molecule, the TGI (HL-60(TB) leukemia) was 40.2 µM, the GI50 (RPMI-8226 leukemia) was 11.5 µM and the TGI (RPMI-8226 leukemia) was 60.8 µM. It also gave a GI50 (T-47D breast) of 15.7 µM and a TGI (T-47D breast) of 47.7 µM.
CCCCn1c(-c2ccc(C(=O)O/N=C(\N)c3ccc4c(c3)OCO4)cc2)nc(-c2ccccc2)c1-c1ccccc1 was tested, and the GI50 (MDA-MB-468 breast) was 3.83 µM and the TGI (MDA-MB-468 breast) was > 100 µM.
CCCCCCCCCCCCCCCC[N+]1(C)CCOCC1 showed a GI50 (MDA-MB-468 breast) of 0.374 µM and a TGI (MDA-MB-468 breast) of 2.16 µM.
O=C1OCC2=C1C(c1ccccc1)c1cc3c(cc1N2CCO)OCO3 (centres undefined) was tested, and the GI50 (MDA-MB-468 breast) was 1.22 µM and the TGI (MDA-MB-468 breast) was 4.61 µM.
In the case of c1ccc2[nH]c(-c3ccc(Nc4nc(N5CCCCC5)nc(N5CCOCC5)n4)cc3)nc2c1, the GI50 (MDA-MB-468 breast) is reported as 2.68 µM and the TGI (MDA-MB-468 breast) is reported as 6.51 µM.
COc1ccc(C(=O)c2ccc([As]=O)cc2)cc1 (centres undefined) gave a GI50 (MDA-MB-468 breast) of 0.0692 µM and a TGI (MDA-MB-468 breast) of 0.242 µM.
COc1ccc(CN2C3CC2CN(c2ccc(-c4cc(OCC(C)(C)O)cn5ncc(C#N)c45)cn2)C3)cn1 was tested, and the GI50 (MDA-MB-468 breast) was 8.09 µM and the TGI (MDA-MB-468 breast) was > 100 µM.
In the case of C/C(=N\NC(=S)Nc1ccc(Br)cc1)c1cc2ccccc2oc1=O, the GI50 (MDA-MB-468 breast) is reported as 1.22 µM and the TGI (MDA-MB-468 breast) is reported as 5.82 µM.
For C=C1C[C@@H]2CC[C@@]34C[C@H]5O[C@H]6[C@@H](O3)[C@H]3O[C@H](CC[C@@H]3O[C@H]6[C@@H]5O4)CC(=O)C[C@@H]3[C@@H](OC)[C@@H](C[C@H](O)CN)O[C@H]3C[C@H]3O[C@@H](CC[C@@H]1O2)C[C@@H](C)C3=C, the GI50 (MDA-MB-468 breast) was < 0.01 µM and the TGI (MDA-MB-468 breast) was 0.0661 µM.
COC(=O)C1(C)Cc2cc(OC(C)=O)c(OC(C)=O)cc2N1 (centres undefined) gave a GI50 (MDA-MB-468 breast) of 1.9 µM and a TGI (MDA-MB-468 breast) of 6.53 µM.
Molecule O=c1oc2ccc(I)cc2c(=O)n1-c1ccc(Cl)cc1F has a GI50 (MDA-MB-468 breast) of 2.11 µM and a TGI (MDA-MB-468 breast) of 5.81 µM.
Cn1cc(C2=C(c3cn(C4CCN(Cc5ccccn5)CC4)c4ccccc34)C(=O)NC2=O)c2ccccc21 was tested, and the GI50 (MDA-MB-468 breast) was 2.08 µM and the TGI (MDA-MB-468 breast) was > 100 µM.
With O=S(=O)(NCCCNc1nccc(-c2c(-c3ccc(F)cc3)nc3sccn23)n1)c1ccc2ccccc2c1 the GI50 (MDA-MB-468 breast) was 3.87 µM and the TGI (MDA-MB-468 breast) was > 100 µM.
CCNC(=O)c1noc(-c2cc(C(C)C)c(O)cc2O)c1-c1ccc(CN2CCOCC2)cc1 was tested, and the GI50 (MDA-MB-468 breast) was < 0.01 µM and the TGI (MDA-MB-468 breast) was 0.055 µM.
For Cc1ccc(-c2nc3nc(-c4ccc(F)cc4)nc(N4CCCNCC4)c3o2)cc1, the GI50 (MDA-MB-468 breast) was 1.58 µM and the TGI (MDA-MB-468 breast) was 3.18 µM.
For O=c1c(F)cn(Cc2ccccc2CCl)c(=O)n1Cc1ccccc1CCl, the GI50 (MDA-MB-468 breast) was 0.684 µM and the TGI (MDA-MB-468 breast) was 2.27 µM.
COc1ccc(OC)c(Cn2cc3c(c2-c2ccccc2)CCc2cnoc2-3)c1 gave a GI50 (MDA-MB-468 breast) of 2.64 µM and a TGI (MDA-MB-468 breast) of 11.5 µM.
For Nc1ccc(/C=C/C(=O)NCc2cc3cc(-c4ccc(C(=O)N5CCC(F)(F)CC5)cc4)cc(-c4ccc(F)cc4)c3o2)cn1, the GI50 (MDA-MB-468 breast) was 22.6 µM and the TGI (MDA-MB-468 breast) was > 100 µM.
